# In US20050026827A1, “Octapeptide bombesin analogs” (Societe de Conseils de Recherches et d'Applications …, priority 1987, published 2005):
# Where two headings read alike, the source gives them in different places. Non-standard residues stand in square brackets, D forms with d. Residues, ends and D or L forms follow the SMILES beside them. *: point of attachment. X1 = CC(C)C[C@H](NC[C@H](Cc1ccccc1)N*)C(N)=O; X2 = CC(C)C[C@@H](CN[C@@H](CC(C)C)C(N)=O)N*; Sta = CC(C)C[C@H](N)[C@@H](O)CC(=O)O; pGlu = O=C1CC[C@@H](C(=O)O)N1
# What was measured:
# swiss 3T3 cells = swiss 3T3 cells (Mus musculus, UniProt P21729); assay: Bombesin-stimulated [3H]thymidine uptake by cultured 3T3 cells; type: cell-based, murine; conditions: Table 1
# Protocol: Phase 1—3T3 Peptide Stimulated [^3H] Thymidine Uptake Assay
# Cell Culture. Stock cultures of swiss 3T3 cells are grown in Dulbecco's Modified Eagles Medium (DMEM) supplemented with 10% fetal calf serum in humidified atmosphere of 10% CO2/90% air at 37° C. For experimental use, the cells are seeded into 24-well cluster trays and used four days after she last change of medium. The cells are arrested in the G1/G0 phase of the cell cycle by changing to serum-free DMEM 24 hours prior to the thymidine uptake assay.
# Assay of DNA Synthesis. The cells are washed twice with 1 ml aliquots of DMEM (-serum) then incubated with DMEM (-serum), 0.5 μM [methyl-^3H] thymidine (20 Ci/mmole, New England Nuclear), bombesin (3 nM), and initially four concentrations of the test compounds (1, 10, 100, 1000 nM) in a final volume of 1.0 ml. After 28 hours at 37° C., [methyl-^3H] thymidine incorporation into acid-insoluble pools is assayed as follows. The cells are washed twice with ice-cold 0.9% NaCl (1 ml aliquots), and acid soluble radioactivity is removed by a 30 min. (4° C.) incubation with 5% trichloroacetic acid (TCA). The cultures are then washed once (1 ml) with 95% ethanol and solubilized by a 30 min. incubation (1 ml) with 0.1N NaOH. The solubilized material is transferred to vials containing 10 ml ScintA (Packard), and the radioactivity is determined by liquid scintillation spectrometry.
# (§1) A number of analogs of bombesin or GRP, each containing a non-peptide bond or a statine, AHPPA, or ACHPA, β-amino acid, or γ-amino acid residue, can be synthesized and tested in one or more of the above-described Phase 1-7 assays; the results of Phase 1 and 2 tests are given in Table 1 attached hereto. […] (3T3 GRP receptor and thymidine uptake data are expressed in IC50 (nM).) Table 1 also gives results for non-peptide bond-containing analogs of one other naturally-occurring peptide, Neuromedin C, whose C-terminal seven amino acids are similar to those of bombesin and GRP. (In Table 1, “Litorin” indicates a 9 residue peptide analog or its derivative, whereas “Neuromedin C” indicates a 10 residue analog or its derivative.)
# [1] = target: T1, 3T3 fibroblast bombesin receptors (3T3 GRP receptor) (Mus musculus, UniProt P21729); assay: In vitro inhibition of [125I]GRP binding to 3T3 fibroblast bombesin receptors; design: species or system murine; conditions: for activity in the 3T3 GRP receptor binding assay (in words): Table 1
# T1 construct: Membranes from various tissues (rat brain, rat pancreas, rat anterior pituitary, SCLC, 3T3 cells) are prepared by homogenization; endogenous in cells; host or cells: 3T3 fibroblasts (membrane preparation)
# Protocol: Phase 4—In Vitro Inhibition of [^125I] Gastrin Releasing Peptide (GRP) Binding to Bombesin Receptors
# Membranes from various tissues (rat brain, rat pancreas, rat anterior pituitary, SCLC, 3T3 cells) are prepared by homogenization in 50 mM TrisHCl containing 0.1% bovine serum albumin and 0.1 mg/ml bacitracin followed by two centrifugations (39,000×g×15 min., 4° C.) with an intermediate resuspension in-fresh buffer. For assay, aliquots […] are incubated with 0.5 nM [^125I]GRP (˜2000 Ci/mmol, Amersham Corp.) and various concentrations of the test compounds in a final volume of 0.5 ml. After a 30 minute incubation at 4° C., the binding reaction is terminated by rapid filtration through Whatman GF/C filters that have been pre-soaked in 0.3% aqueous polethyleneimine to reduce the level of nonspecific binding. The filters and tubes are washed three times with 4 ml aliquots of ice-cold buffer, and the radioactivity trapped on the filters is counted by gamma-spectrometry. Specific binding is defined as the total. [^125I]GRP bound minus that bound in the presence of 1000 nM. bombesin or a related peptide.
# as §1
# NCI-H69 human SCLC = assay: In vivo antitumor activity, NCI-H69 small cell lung carcinoma xenografts; conditions: for Tumor Size Day 18 (mm) / % Test/Control (Day 18) / % Test/Control (Day 28) / Tumor Size Day 28 (mm): 50 μg/inj., b.i.d., QD1-28; for Tumor Size Day 18 (mm) / Tumor Size Day 28 (mm): mean ± SD
# Protocol: Phase 6—In Vivo Antitumor Activity
# NCI-H69 small cell lung carcinoma cells were transplanted from in vitro culture by implanting each animal with the equivalent of 5 confluent 75 cm^2 tissue culture flasks in the right flank. In vitro NCI-H69 cells grow as a suspension of cellular aggregates. Therefore, no attempt was made to disaggregate the cell agglomerates by physical or chemical means. Tumor size was calculated as the average of two diameters, i.e., (length and width/2) mm.
# (§2) These observations prompted us to evaluate the effect of BIM-26100 on the in vivo growth of the SCLC tumor cell line described in Phase 6. Twenty athymic nude females, 5 to 6 weeks of age, were implanted on day 0 with the NCI-H69 human SCLC, individually identified and then randomized into the following vehicle control and test groups:
# (§3) Growth of NCI-H69 xenografts and the tumor growth inhibitory activity of the bombesin antagonist BIM-26100 (pGlu-Gln-Trp-Ala-Val-Gly-His-Pheψ[CH2NH]Leu-NH2) are illustrated as tumor growth curves in FIG. 1, and relative tumor sizes in Table 2. […] The effectiveness of the antitumor activity of BIM-26100 is evident in view of the large inoculum of NCI-H69 tumor cells (i.e. the equivalent of 5 confluent 75 cm^2 cell culture flasks per animal) and the agglomerated condition of the cells. In confluent flasks, NCI-H69 agglomerates are macroscopically visible and together resemble a metastatic tumor colony. Many such tumor colonies were implanted per animal. The dose of BIM-26100 […] and is not optimal. Higher doses of BIM-26100 may be administered, as indicated by body weight gain (minus tumor weight) gain during the course of treatment (Table 3).
# [2] = Body weight (minus tumor weight) during BIM-26100 treatment of tumor-bearing animals; type: in vivo, athymic nude females; conditions: for Body Weight(gm) Day 0 / Body Weight(gm) Day 18 / Body Weight(gm) Day 28: 50 μg/inj., b.i.d., QD1-28, tumor weight subtracted
# Text: as §2, §3
# [3] = inhibition of [125I]GRP binding, 3T3 membranes, read-out: 3T3 GRP Receptor IC50
# T1 sequence (P21729 whole entry): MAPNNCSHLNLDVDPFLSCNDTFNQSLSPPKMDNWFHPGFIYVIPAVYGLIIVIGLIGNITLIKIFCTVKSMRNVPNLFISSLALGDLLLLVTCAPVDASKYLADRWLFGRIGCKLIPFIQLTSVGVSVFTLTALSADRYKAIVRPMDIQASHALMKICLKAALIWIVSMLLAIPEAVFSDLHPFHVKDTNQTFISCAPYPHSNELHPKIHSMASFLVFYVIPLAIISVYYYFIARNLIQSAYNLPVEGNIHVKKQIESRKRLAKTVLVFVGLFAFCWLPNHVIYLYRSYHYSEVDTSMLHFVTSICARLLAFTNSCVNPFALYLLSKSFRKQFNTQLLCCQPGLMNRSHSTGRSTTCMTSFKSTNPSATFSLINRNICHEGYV
# Sequence of swiss 3T3 cells (P21729 whole entry): as above
smiles,measurement,setting,value
"CC(C)C[C@H](NC(=O)[C@H](Cc1c[nH]cn1)NC(=O)CNC(=O)[C@@H](NC(=O)[C@H](C)NC(=O)[C@H](Cc1c[nH]c2ccccc12)NC(=O)[C@H](CCC(N)=O)NC(=O)[C@@H]1CCC(=O)N1)C(C)C)[C@@H](O)CC(N)=O [BIM-26120, pGlu-Gln-Trp-Ala-Val-Gly-His-Sta-NH2] ([pGlu]QWAVGH[Sta]-NH2)",activity in the 3T3 thymidine uptake assay (in words),swiss 3T3 cells,potent antagonists
"CC(C)C[C@@H](CN[C@@H](CC(C)C)C(N)=O)NC(=O)[C@H](Cc1c[nH]cn1)NC(=O)[C@@H](C)NC(=O)[C@@H](NC(=O)[C@H](C)NC(=O)[C@H](Cc1c[nH]c2ccccc12)NC(=O)[C@H](Cc1c[nH]cn1)NC(=O)[C@@H](C)N)C(C)C [BIM-26106, desGly-D-Ala-His-Trp-Ala-Val-D-ALa-His-Leuψ[CH2CH]Leu-NH2] (H-[dA]HWAV[dA]H-X2; N-terminus assumed)",activity in the 3T3 GRP receptor binding assay (in words),[1],antagonists
same,IC50,[1]; [3],401 nM
same,activity in the 3T3 thymidine uptake assay (in words),swiss 3T3 cells,antagonists
"CC(C)C[C@@H](CN[C@@H](CC(C)C)C(N)=O)NC(=O)[C@H](Cc1c[nH]cn1)NC(=O)[C@@H](C)NC(=O)[C@@H](NC(=O)[C@H](C)NC(=O)[C@H](Cc1c[nH]c2ccccc12)NC(=O)[C@H](Cc1c[nH]cn1)NC(=O)[C@H](CC(N)=O)NC(=O)[C@@H](C)N)C(C)C [BIM-26105, D-Ala-Asn-His-Trp-Ala-Val-D-ALa-His-Leuψ[CH2CH]Leu-NH2] (H-[dA]NHWAV[dA]H-X2; N-terminus assumed)",IC50,[1],107 nM
same,activity in the 3T3 GRP receptor binding assay (in words),[1],antagonists
same,activity in the 3T3 thymidine uptake assay (in words),swiss 3T3 cells,antagonists
"CC(C)C[C@@H](CN[C@@H](CC(C)C)C(N)=O)NC(=O)[C@H](Cc1c[nH]cn1)NC(=O)CNC(=O)[C@@H](NC(=O)[C@H](C)NC(=O)[C@H](Cc1c[nH]c2ccccc12)NC(=O)[C@H](Cc1c[nH]cn1)NC(=O)[C@H](CC(N)=O)NC(=O)CN)C(C)C [BIM-26092, Gly-Asn-His-Trp-Ala-Val-Gly-His-Leuψ[CH2NH]Leu-NH2] (H-GNHWAVGH-X2)",activity in the 3T3 GRP receptor binding assay (in words),[1],antagonists
same,activity in the 3T3 thymidine uptake assay (in words),swiss 3T3 cells,antagonists
"CC(C)C[C@H](NC[C@H](Cc1ccccc1)NC(=O)[C@H](Cc1c[nH]cn1)NC(=O)CNC(=O)[C@@H](NC(=O)[C@H](C)NC(=O)[C@H](Cc1c[nH]c2ccccc12)NC(=O)[C@H](CCC(N)=O)NC(=O)[C@@H]1CCC(=O)N1)C(C)C)C(N)=O [BIM-26100, pGlu-Gln-Trp-Ala-Val-Gly-His-Pheψ[CH2NH]Leu-NH2] ([pGlu]QWAVGH-X1)",activity in the 3T3 GRP receptor binding assay (in words),[1],most active
same,Tumor Size Day 18 (mm),NCI-H69 human SCLC; s.c. inf. (infused around tumor),7.6 ± 1.56 mm
same,% Test/Control (Day 18),NCI-H69 human SCLC; s.c. inf.,70%
same,% Test/Control (Day 28),NCI-H69 human SCLC; s.c. inf.,86%
same,Tumor Size Day 28 (mm),NCI-H69 human SCLC; s.c. inf.,13.7 ± 0.67 mm
same,% Test/Control (Day 18),NCI-H69 human SCLC; s.c.,93%
same,Tumor Size Day 18 (mm),NCI-H69 human SCLC; s.c.,10.1 ± 1.47 mm
same,% Test/Control (Day 28),NCI-H69 human SCLC; s.c.,108%
same,Tumor Size Day 28 (mm),NCI-H69 human SCLC; s.c.,17.3 ± 1.96 mm
same,tumor growth inhibitory activity (in words),NCI-H69 human SCLC; s.c. infusion around the tumor,significantly inhibited tumor growth
same,Body Weight(gm) Day 0,[2]; s.c. inf.,17.7 gm
same,Body Weight(gm) Day 18,[2]; s.c. inf.,20.4 gm
same,Body Weight(gm) Day 28,[2]; s.c. inf.,21.1 gm
same,Body Weight(gm) Day 0,[2]; s.c.,16.9 gm
same,Body Weight(gm) Day 18,[2]; s.c.,19.2 gm
same,Body Weight(gm) Day 28,[2]; s.c.,19.1 gm
same,local or systemic toxicity (in words),[2]; judged from body weight gain during treatment,completely lacks local or systemic toxicity
"CC(C)C[C@@H](CN[C@@H](CC(C)C)C(N)=O)NC(=O)[C@H](Cc1c[nH]cn1)NC(=O)CNC(=O)[C@@H](NC(=O)[C@H](C)NC(=O)[C@H](Cc1c[nH]c2ccccc12)NC(=O)[C@H](Cc1c[nH]cn1)NC(=O)[C@H](N)Cc1ccccc1)C(C)C [BIM-26107, D-Phe-His-Trp-Ala-Val-Gly-His-Leuψ[CH2NH]Leu-NH2] (H-[dF]HWAVGH-X2)",activity in the 3T3 GRP receptor binding assay (in words),[1],antagonists
same,IC50,[1]; [3],199 nM
same,activity in the 3T3 thymidine uptake assay (in words),swiss 3T3 cells,antagonists
